Reference: article PMC5310922, “A high-throughput phenotypic screen identifies clofazimine as a potential treatment for cryptosporidiosis” (PLoS Neglected Tropical Diseases, 2017)
Like-named read-outs stand apart in the source and are kept apart here.

Legend:
[1] = system: Cryptosporidium hominis (TU502); assay: C. hominis proliferation in HCT-8 cells, 48 h high-content imaging assay; assay type: cell-based; settings: read-out: C. hominis 48H Assay EC50 [µM] (SD; n)
Procedure: Methods for continuous, in vitro cultivation of Cryptosporidium spp. have not been well established. Instead, in vivo oocyst propagation of C. parvum is performed in calves, a more promiscuous Cryptosporidium species for animal and human infections. For C. hominis, gnotobiotic piglets are the primary means of propagation. The calf is the more accessible model, making C. parvum the more convenient species to screen. However, C. hominis is equally clinically relevant with regards to human cryptosporidiosis. […] High purity powders of the 10 filtered C. parvum Bioactives screen hits and both GHCDL screen hits were tested against C. hominis (TU502) to confirm activity against both species.
(§1) Cells were then plated (5 μL/well) into 1536-well assay plates at a density of 5.5×10^5 cells/mL (2,750 cells/well).
C. parvum oocysts (Iowa strain, isolated from infected calves) were purchased from the Sterling Parasitology Laboratory, University of Arizona, and stored at 4°C for ≤ 3 months in an antibiotic solution (0.01% Tween 20 containing 100 U/mL penicillin and 100 μg/mL gentamicin). C. hominis oocysts (TU502, isolated from gnotobiotic piglets) were purchased from the Tzipori Laboratory, Cummings School of Veterinary Medicine, Tufts University, and stored at 4°C for ≤ 2 weeks in an antibiotic solution (100 U/mL penicillin and 100 μg/mL streptomycin). For infection of assay plates, 24 h after cell seeding, oocysts were excysted and prepared for inoculation as previously described. Briefly, the oocysts were diluted into 1 mL pre-warmed 10 mM HCl and then incubated in a 37°C water bath for 10 min. Oocysts were then pelleted at 3,000×g for 1 min in a microcentrifuge (Thermo), and the supernatant was carefully aspirated. Oocysts were resuspended in 2 mM sodium taurocholate in DPBS++ (with 0.9 mM CaCl2 and 0.5 mM MgCl2) and incubated at room temperature for 20 min. After incubation in bile salts, the oocysts were diluted 1:100 and free sporozoites and intact oocysts were enumerated to determine the percentage of excystation.
Plates were then washed twice with phosphate buffered saline (PBS). […] To prevent non-specific binding, the cells were blocked with SuperBlock™ T20 blocking agent (Thermo) for 1 h at room temperature. Cryptosporidium parasites were stained with 1 μg/mL fluorescein isothiocyanate (FITC)-conjugated Vicia villosa lectin (Vector Laboratories) in 1:10 diluted SuperBlock™ in PBS-T, supplemented with 3 μM 4',6-diamidino-2-phenylindole (DAPI) to visualize host cell nuclei. Staining was for 1 h at room temperature in the dark. Finally, cells were washed twice with PBS-T and the plates were sealed with adhesive foil. The plates were imaged with a CellInsight CX5 High Content Screening Platform (Thermo) with a 10× objective. […] The software identified primary objects (HCT-8 host cells) and spots within allowed distances to the nuclei (Cryptosporidium). Both cytotoxicity against HCT-8 cells (number of nuclei relative to DMSO-treated controls) and Cryptosporidium inhibition (spot counts relative to DMSO-treated controls) were assessed.
Images were processed by the HCS Studio Scan software, and Selected Object Count (HCT-8 cells) and Spot Count (Cryptosporidium) were analyzed in Genedata Screener (v13.0-Standard). Spot Count and Selected Object Count were normalized to neutral controls minus inhibitors (floxuridine for Spot Count, and puromycin for Selected Object Count).

[2] = HEK293T 72 h cytotoxicity (CellTiter-Glo); assay type: cell-based, human; settings: human
Procedure: (§2) Two mammalian cell lines were used for counter-screening for general cytotoxicity of hit compounds: human embryonic kidney cells (HEK293T; ATCC CRL-3216) and human hepatocellular carcinoma cells (HepG2; ATCC HB-8065). […] Compounds were pre-spotted into tissue culture-treated white solid-bottomed 1536-well plates (Greiner) in a 1:3 dose-response dilution (top concentration 20 μM). HEK293T and HepG2 cells were diluted to 75×10^3 cells/mL and 150×10^3 cells/mL, respectively, and 5 μL/well were dispensed into assay plates with a MultiFlo FX Multi-Mode Dispenser (Biotek). […] At the completion of the assay, CellTiter-Glo (Promega) was prepared at 1:2 (reagent:water) of the manufacturer’s instructions, and 2 μL were dispensed into each well. After a 5 min incubation at room temperature, luminescence readings were measured with an EnVision Multilabel Plate Reader (Perkin Elmer). […] were uploaded into Genedata Screener (v13.0-Standard), and data normalized to DMSO- and puromycin-treated wells. A four-parameter non-linear regression curve fit was applied to dose-response data using Genedata to determine the half maximal cytotoxic concentration (CC50) of each compound.

C. parvum [3] = assay: Host cell 3-h pre-treatment, with or without wash, then C. parvum infection; assay type: cell-based, Cryptosporidium parvum; settings: for EC50: Cryptosporidium parvum, host cells pretreated 3 h, C. parvum, 48 hpi
Procedure: A set of parallel wells were also treated and not washed prior to infection. 48 hpi, infected cells were imaged as described above, and EC50s for each compound pre- and post-wash were determined.

[4] = HepG2 72 h cytotoxicity (CellTiter-Glo); assay type: cell-based, human; settings: human
Procedure: as §2

Cryptosporidium parvum = assay: C. parvum proliferation in HCT-8 cells, 48 h high-content imaging assay; assay type: cell-based, Cryptosporidium parvum (Iowa strain); settings: for EC50: 48 h; for EC99 against C. parvum: concentration used in washout assay
in vitro = settings: human
Procedure: as §1
(§3) Plates were then washed twice with phosphate buffered saline (PBS). […] To prevent non-specific binding, the cells were blocked with SuperBlock™ T20 blocking agent (Thermo) for 1 h at room temperature. Cryptosporidium parasites were stained with 1 μg/mL fluorescein isothiocyanate (FITC)-conjugated Vicia villosa lectin (Vector Laboratories) in 1:10 diluted SuperBlock™ in PBS-T, supplemented with 3 μM 4',6-diamidino-2-phenylindole (DAPI) to visualize host cell nuclei. Staining was for 1 h at room temperature in the dark. Finally, cells were washed twice with PBS-T and the plates were sealed with adhesive foil. The plates were imaged with a CellInsight CX5 High Content Screening Platform (Thermo) with a 10× objective. […] For 1536-well format assays (primary screening, triplicate reconfirmation, and dose-response reconfirmation, one microscopic field (802,511.39 μm^2) per well, and for the 384-well washout assay, 4 fields per well were captured. The software identified primary objects (HCT-8 host cells) and spots within allowed distances to the nuclei (Cryptosporidium). Both cytotoxicity against HCT-8 cells (number of nuclei relative to DMSO-treated controls) and Cryptosporidium inhibition (spot counts relative to DMSO-treated controls) were assessed.
(§4) Images were processed by the HCS Studio Scan software, and Selected Object Count (HCT-8 cells) and Spot Count (Cryptosporidium) were analyzed in Genedata Screener (v13.0-Standard). Spot Count and Selected Object Count were normalized to neutral controls minus inhibitors (floxuridine for Spot Count, and puromycin for Selected Object Count). For single-point primary assay plates, an additional run-wise median correction was applied to reduce screen artifacts (e.g. uneven dispense), whereas no correction was applied to triplicate reconfirmation and dose-response plates. For primary screening, a compound is considered a hit by a ≥ 70% reduction in Corrected Spot Count. Compounds that caused moderate cytotoxicity were filtered out (i.e., excluding all Corrected Selected Object Counts ≤ -60%). Dose-response curves were fit with Genedata Analyzer using the Smart Fit function.

C. parvum [5] = assay: Washout assay: 3-h treatments over the asexual life cycle of C. parvum
Procedure: We examined short, three-hour compound treatments of in vitro cultures, followed by compound washout, that covered the complete asexual life cycle, believed to be 13–15 h post invasion [36]. […] The treatment interval lasted 3 h before washout with fresh medium; infected cells were allowed to grow until 48 h post infection before fixation. […] As CFZ is very lipophilic, we sought to determine whether intracellular accumulation was affecting the strong inhibition across each time point.
Infected cells were treated in six 3-h increments over the course of 15 h (the presumed in vitro asexual lifecycle of C. parvum). HCT-8 cells were seeded (25 μL/well) into clear-bottomed 384-well plates (Greiner) at a density of 6.0×10^5 cells/mL (15,000 cells/well) in assay medium, and allowed to grow 24 h at 37°C with 5% CO2 in a humidified tissue culture incubator, covered with a custom metal lid (The Genomics Institute of the Novartis Research Foundation) to reduce evaporation. After 24 h, and 2 h before infecting with C. parvum oocysts (time -2 hpi), the treatment time course was initiated. […] DMSO was used as a negative control. Cell medium was removed from designated wells and replaced with medium containing either compound or DMSO. […] Plates were then spun at 150×g for 3 min, and kept at 37°C with 5% CO2 in a humidified tissue culture incubator during drug treatment intervals. At the end of each 3 h time point, infected cells were carefully washed three times with fresh, pre-warmed assay medium, and the next set of wells for the subsequent time point were treated. The final time point extended to 18 h, to cover re-invasion of merozoites into new HCT-8 cells. After the final compound treatment was washed off, infected cells were allowed to grow until 48 h post infection.

HEK293T = HEK293T 72 h cytotoxicity (CellTiter-Glo); assay type: cell-based, human
Procedure: as §2

HepG2 = HepG2 72 h cytotoxicity (CellTiter-Glo); assay type: cell-based, human
Procedure: as §2

HCT-8 (Host cells) = assay: in vitro
Procedure: as §1, §3, §4

[6] = Cryptosporidium hominis, in HCT-8 cells, 48 h, value (SD; n)
[7] = Cryptosporidium parvum, HCT-8 cells, read-out: EC50 against C. parvum
[8] = Cryptosporidium parvum, in HCT-8 cells, value (SD; n), read-out: C. parvum 48H Assay EC50 [µM] (SD; n)
[9] = HEK293T cells, 72 h, value (SD; n), read-out: HEK293T 72H Cytotoxicity CC50 [µM] (SD; n)
[10] = HepG2 cells, 72 h, value (SD; n), read-out: HepG2 72H Cytotoxicity CC50 [µM] (SD; n)
[11] = 72 h, value (SD; n), read-out: HEK293T 72H Cytotoxicity CC50 [µM] (SD; n)
[12] = 72 h, value (SD; n), read-out: HepG2 72H Cytotoxicity CC50 [µM] (SD; n)
[13] = in HCT-8 cells, 48 h, value (SD; n)
[14] = in HCT-8 cells, value (SD; n), read-out: C. parvum 48H Assay EC50 [µM] (SD; n)
[15] = read-out: HCT-8 (Host cells) 48H Assay CC50 [µM] (SD; n), 48 h, value (SD; n)

| Compound | EC50 [1, 6] | EC50 (Cryptosporidium parvum; [7]) | EC50 (Cryptosporidium parvum; [8]) | CC50 at 72 h [2, 9] | CC50 at 72 h [4, 10] | CC50 at 48 h (in vitro; HCT-8 cells) | EC50 [1, 13] | EC50 (Cryptosporidium parvum; [14]) | other results |
| --- | --- | --- | --- | --- | --- | --- | --- | --- | --- |
| O=c1[nH]c(=O)n([C@H]2C[C@H](O)[C@@H](CO)O2)cc1F [5-fluoro-2'-deoxyuridine; Floxuridine, 5-fluoro-2'-deoxyuridine] | 0.0182 µM | 0.017 µM | 0.0172 µM | – | – | – | – | – | CC50 at 72 h [2]: 0.0471 µM; EC50 (C. parvum [3]; read-out: Post-wash EC50): 9.4 nM; EC50 (C. parvum [3]; read-out: Pre-wash EC50): 53 nM; inhibition of C. parvum proliferation after compound removal by repeated washes (C. parvum [3]; host cell pre-treatment, dose-response): near equipotent inhibition; CC50 at 72 h [4]: 0.214 µM; EC99 against C. parvum (Cryptosporidium parvum): 0.1 µM; CC50 at 48 h (in vitro): 154 nM; inhibition of C. parvum proliferation, every 3-h time point of the asexual life cycle (C. parvum [5]; treated at EC99 for 3 h, washout, read at 48 hpi): strong inhibition of growth across all time points |
| OC1CCCC2Nc3nonc3NC(c3ccc(Cl)cc3Cl)C12 (stereo not drawn) [GHCDL-1] | 2.82 µM | 1.42 µM | – | > 20 µM | > 20 µM | > 12500 nM | – | – | – |
| Cc1csc(NCC(O)c2c[nH]c3ccccc23)n1 (stereo not drawn) [GHCDL-2] | 0.946 µM | 0.293 µM | – | > 20 µM | > 20 µM | > 12500 nM | – | – | – |
| Cn1c2ccccc2c2c3c(c4c5ccccc5n(CCC#N)c4c21)CNC3O (stereo not drawn) [Gö 6976] | 0.00496 µM | 0.0025 µM | 0.00245 µM | 0.124 µM | > 20 µM | > 12500 nM | – | – | – |
| CC[C@@]1([C@@H]2O[C@@H]([C@H]3O[C@@](O)(CO)[C@H](C)C[C@@H]3C)C[C@@H]2C)CC[C@H]([C@]2(C)CC[C@]3(C[C@H](O)[C@@H](C)[C@@H]([C@@H](C)[C@@H](OC)[C@H](C)C(=O)O)O3)O2)O1 [Monensin sodium] | – | 0.007 µM | 0.00704 µM | – | – | – | – | – | EC50 ([1]; Cryptosporidium hominis, HCT-8, 48 h): 0.0103 µM; CC50 at 72 h [2, 11]: 0.516 µM; CC50 at 72 h [4, 12]: 1.65 µM; CC50 at 48 h (in vitro): > 12500 nM |
| Oc1ccc(Cl)cc1NC(S)NC(O)c1cccc(Br)c1 (stereo not drawn) [NSC215721] | 0.176 µM | – | 0.278 µM | > 20 µM | > 20 µM | > 12500 nM | – | – | – |
| COc1cc(Nc2ncc(F)c(Nc3ccc4c(n3)NC(O)C(C)(C)O4)n2)cc(OC)c1OC (stereo not drawn) [R406] | 0.647 µM | – | 0.254 µM | > 20 µM | 0.596 µM | > 12500 nM | – | – | – |
| Momelotinib [Momelotinib; CYT-387] | – | – | – | – | – | – | 0.389 µM | 0.37 µM | CC50 (HEK293T): 19 µM; CC50 (HepG2): 7.76 µM; CC50 (HCT-8 (Host cells)): 6.05 µM |
| Nitazoxanide | – | – | – | – | – | – | 2.82 µM | 2.84 µM | CC50 (HEK293T; [11]): > 48 µM; CC50 (HepG2; [12]): > 48 µM; EC50 (Cryptosporidium parvum; HCT-8 cells, read-out: EC50 against C. parvum): 2.8 µM; EC99 against C. parvum (Cryptosporidium parvum): 8 µM; CC50 (HCT-8 (Host cells); [15]): > 10 µM; inhibition of parasite growth at all time points other than 10–13 h post infection (C. parvum [5]; 3-h treatment then washout, even at 3×EC99): < 60% |
| Puromycin | – | – | – | – | – | – | 0.742 µM | 0.482 µM | CC50 (HEK293T; [11]): 0.519 µM; CC50 (HepG2; [12]): 1.13 µM; CC50 (HCT-8 (Host cells); [15]): 3.15 µM |
| Rocilinostat [Rocilinostat; ACY-1215] | – | – | – | – | – | – | 0.451 µM | 0.356 µM | CC50 (HEK293T): 12.1 µM; CC50 (HepG2): 0.849 µM; CC50 (HCT-8 (Host cells)): 11.4 µM |
| Vorinostat [Vorinostat; SAHA] | – | – | – | – | – | – | – | – | CC50 (HEK293T): 4.27 µM; CC50 (HepG2): 1.07 µM; CC50 (HCT-8 (Host cells)): 1.84 µM |
